# Test system: Influenza A virus
# Test: Antiviral activity against Influenza A virus (A/Puerto Rico/8/34(H1N1)) infected in MDCK cells assessed as inhibition of virus-induced cytopathic effect after 48 hrs by crystal violet staining technique
# Assay type: functional, organism-based
# Conditions: A/Puerto Rico/8/1934(H1N1)
row,SMILES,IC50 [µM]
1,NC(=O)c1ncn([C@@H]2O[C@H](CO)[C@@H](O)[C@H]2O)n1 [RIBAVIRIN],84
2,C/C=C/C=C/C(O)=C1/C(=O)[C@]2(C)C(=O)[C@@](C)(O)[C@H]1C[C@@H]2c1ccc(O)c(OC)c1,85
3,C/C=C/C=C/C(O)=C1/C(=O)[C@]2(C)C(=O)[C@@](C)(O)[C@H]1C[C@H]2c1ccc(O)c(OC)c1,113
